According to the NIST ThermoML archive (doi:10.1016/j.fluid.2005.12.017):
± gives the expanded uncertainty stated by the source.

Assays:
[1] = Molar enthalpy of transition or fusion; conditions: Crystal; DSC
[2] = for molar volume: 101.33 kPa, Pycnometric method; for Normal melting temperature: DTA

SMILES | Molar enthalpy of transition or fusion [1] | molar volume ([2]; 338.15 K, Crystal) | molar volume ([2]; 338.15 K, Liquid) | Normal melting temperature ([2]; Crystal) | molar volume ([2]; 323.15 K, Crystal) | molar volume ([2]; 323.15 K, Liquid)
CCCCCCCCCCCCCCCC(=O)OCC(COC(=O)CCCCCCCCCCCCCCC)OC(=O)CCCCCCCCCCCCCCC [1,2,3-propanetriyl tri(hexadecanoate)] | 28.9 ± 0.478 kcal/mol | 0.00087 ± 1e-05 m3/mol | 0.00093 ± 1e-05 m3/mol | 64.2 ± 0.5 °C |  | 
COC1=C(OC)C(=O)C(C/C=C(\C)CC/C=C(\C)CC/C=C(\C)CC/C=C(\C)CC/C=C(\C)CC/C=C(\C)CC/C=C(\C)CC/C=C(\C)CC/C=C(\C)CCC=C(C)C)=C(C)C1=O [Coenzyme Q10] | 19.6 ± 0.478 kcal/mol |  |  | 49.4 ± 0.5 °C | 0.0009 ± 1e-05 m3/mol | 0.00095 ± 1e-05 m3/mol
